Experiments:
Experiment in all cases: differential drug sensitivity score (dDSS) relative to sarcoma reference cohort mean DSS (DSS units (0-100 scale difference)); higher = more selective sensitivity than reference sarcomas
Settings in all cases: exposure time: 72 h; concentration range: 10-10000 nM
[1] = system: ES-ZH016 direct (Ewing sarcoma cells right after isolation)
Method: (§1)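 Drug response profiling of patient-derived Ewing sarcoma and CIC::DUX4 sarcoma tumoroid models (or cells tested directly after isolation from the tumor, 'direct'). The DSS is the normalised AUC (0-100); dDSS is the sample DSS minus the mean DSS of a 34-sarcoma reference cohort profiled in the same lab.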

[2] = system: CDS-ZH003 (patient-derived CIC-DUX4 sarcoma tumoroid)
Method: as §1

[3] = system: CDS-ZH001 (patient-derived CIC-DUX4 sarcoma tumoroid)
Method: as §1

[4] = system: ES-ZH008 (patient-derived Ewing sarcoma tumoroid)
Method: as §1

[5] = system: CDS-ZH002 (patient-derived CIC-DUX4 sarcoma tumoroid)
Method: as §1

[6] = system: CDS-ZH001-2 (patient-derived CIC-DUX4 sarcoma tumoroid)
Method: as §1

[7] = system: ES-ZH002 (patient-derived Ewing sarcoma tumoroid)
Method: as §1

[8] = system: ES-ZH009 (patient-derived Ewing sarcoma tumoroid)
Method: as §1

[9] = system: ES-ZH016 (patient-derived Ewing sarcoma tumoroid)
Method: as §1

[10] = system: ES-ZH001 (patient-derived Ewing sarcoma tumoroid)
Method: as §1

[11] = system: ES-ZH007 (patient-derived Ewing sarcoma tumoroid)
Method: as §1

[12] = system: ES-ZH004 (patient-derived Ewing sarcoma tumoroid)
Method: as §1

[13] = system: CDS-ZH002 direct (CIC-DUX4 sarcoma cells right after isolation)
Method: as §1

CC(C)NC[C@@H](C(=O)N1CCN(c2ncnc3c2[C@H](C)C[C@H]3O)CC1)c1ccc(Cl)cc1 [Ipatasertib]
differential drug sensitivity score [1]: -3.9
differential drug sensitivity score [2]: 8.9
differential drug sensitivity score [3]: 7.6
differential drug sensitivity score [4]: 6.6
differential drug sensitivity score [5]: -0.8
differential drug sensitivity score [6]: 2
differential drug sensitivity score [7]: 10.2
differential drug sensitivity score [8]: 2.4
differential drug sensitivity score [9]: -0.5
differential drug sensitivity score [10]: -3.2
differential drug sensitivity score [11]: 1.3
differential drug sensitivity score [12]: 3.9
differential drug sensitivity score [13]: -3.2

C[C@@H]1COCCN1c1cc(-c2ccnn2C)c2ccnc(-c3ccn[nH]3)c2n1 [Elimusertib]
differential drug sensitivity score [1]: 12.4
differential drug sensitivity score [2]: 7.8
differential drug sensitivity score [3]: 7.3
differential drug sensitivity score [4]: 11.6
differential drug sensitivity score [5]: 0.9
differential drug sensitivity score [6]: 11.3
differential drug sensitivity score [7]: 10.8
differential drug sensitivity score [8]: 10.9
differential drug sensitivity score [9]: 6.4
differential drug sensitivity score [10]: 7
differential drug sensitivity score [11]: 10.1
differential drug sensitivity score [12]: 9.6
differential drug sensitivity score [13]: -5.1

CO/N=C1\C[C@]2(C[C@@H]3C[C@@H](C/C=C(\C)C[C@@H](C)/C=C/C=C4\CO[C@@H]5[C@H](O)C(C)=C[C@@H](C(=O)O3)[C@]45O)O2)O[C@H](/C(C)=C/C(C)C)[C@H]1C [Moxidectin]
differential drug sensitivity score [1]: 0
differential drug sensitivity score [2]: -4.8
differential drug sensitivity score [3]: 0.1
differential drug sensitivity score [4]: -1.8
differential drug sensitivity score [5]: -3.7
differential drug sensitivity score [6]: -5
differential drug sensitivity score [7]: 3.7
differential drug sensitivity score [8]: 3.8
differential drug sensitivity score [9]: -0.4
differential drug sensitivity score [10]: 0.2
differential drug sensitivity score [11]: -0.2
differential drug sensitivity score [12]: 0.9
differential drug sensitivity score [13]: 0

C[C@]1(c2nc3c(C(N)=O)cccc3[nH]2)CCCN1 [Veliparib]
differential drug sensitivity score [1]: 5.6
differential drug sensitivity score [2]: -0.6
differential drug sensitivity score [3]: -1.3
differential drug sensitivity score [4]: 5.8
differential drug sensitivity score [5]: -1.3
differential drug sensitivity score [6]: -1.2
differential drug sensitivity score [7]: 8.8
differential drug sensitivity score [8]: -1.3
differential drug sensitivity score [9]: 1.2
differential drug sensitivity score [10]: 4.9
differential drug sensitivity score [11]: 1.4
differential drug sensitivity score [12]: 5.1
differential drug sensitivity score [13]: -1.3

CO[C@H]1C[C@@H]2CC[C@@H](C)[C@@](O)(O2)C(=O)C(=O)N2CCCC[C@H]2C(=O)O[C@H]([C@H](C)C[C@@H]2CC[C@@H](O)[C@H](OC)C2)CC(=O)[C@H](C)/C=C(\C)[C@@H](O)[C@@H](OC)C(=O)[C@H](C)C[C@H](C)/C=C/C=C/C=C/1C [Sirolimus]
differential drug sensitivity score [1]: -8.7
differential drug sensitivity score [2]: -6.7
differential drug sensitivity score [3]: -10.4
differential drug sensitivity score [4]: 6.7
differential drug sensitivity score [5]: -10.4
differential drug sensitivity score [6]: -0.4
differential drug sensitivity score [7]: 17.8
differential drug sensitivity score [8]: 2.7
differential drug sensitivity score [9]: -0.6
differential drug sensitivity score [10]: 5.7
differential drug sensitivity score [11]: 7.2
differential drug sensitivity score [12]: 14.2
differential drug sensitivity score [13]: -2.2

CCc1cc2c(cc1N1CCC(N3CCOCC3)CC1)C(C)(C)c1[nH]c3cc(C#N)ccc3c1C2=O [Alectinib]
differential drug sensitivity score [1]: -1.3
differential drug sensitivity score [2]: 2.4
differential drug sensitivity score [3]: -1.2
differential drug sensitivity score [4]: -0.7
differential drug sensitivity score [5]: -1.3
differential drug sensitivity score [6]: -1.3
differential drug sensitivity score [7]: 4.6
differential drug sensitivity score [8]: -1.3
differential drug sensitivity score [9]: -1.3
differential drug sensitivity score [10]: -0.5
differential drug sensitivity score [11]: -1.3
differential drug sensitivity score [12]: -1.3
differential drug sensitivity score [13]: -0.8

Cc1ccc(NC(=O)c2ccc(CN3CCN(C)CC3)cc2)cc1Nc1nccc(-c2cccnc2)n1 [Imatinib]
differential drug sensitivity score [1]: 1.6
differential drug sensitivity score [2]: 12.4
differential drug sensitivity score [3]: 0.4
differential drug sensitivity score [4]: 0.1
differential drug sensitivity score [5]: -1.5
differential drug sensitivity score [6]: -0.8
differential drug sensitivity score [7]: 3.2
differential drug sensitivity score [8]: -3.3
differential drug sensitivity score [9]: -3.3
differential drug sensitivity score [10]: -2.9
differential drug sensitivity score [11]: -1.3
differential drug sensitivity score [12]: 0.7
differential drug sensitivity score [13]: -1.3

CC(=O)[C@]1(O)Cc2c(O)c3c(c(O)c2[C@@H](O[C@H]2C[C@H](N)[C@H](O)[C@H](C)O2)C1)C(=O)c1ccccc1C3=O [Idarubicin]
differential drug sensitivity score [1]: 7.3
differential drug sensitivity score [2]: 0.5
differential drug sensitivity score [3]: -0.3
differential drug sensitivity score [4]: 6.4
differential drug sensitivity score [5]: 0.5
differential drug sensitivity score [6]: 7
differential drug sensitivity score [7]: 19.4
differential drug sensitivity score [8]: 13.4
differential drug sensitivity score [9]: 11.8
differential drug sensitivity score [10]: 11.8
differential drug sensitivity score [11]: -9.5
differential drug sensitivity score [12]: -2.2
differential drug sensitivity score [13]: 1.8

S=P(N1CC1)(N1CC1)N1CC1 [Thiotepa]
differential drug sensitivity score [1]: 17
differential drug sensitivity score [2]: 9.4
differential drug sensitivity score [3]: 4.6
differential drug sensitivity score [4]: 8.7
differential drug sensitivity score [5]: -3.1
differential drug sensitivity score [6]: 0.2
differential drug sensitivity score [7]: 11.2
differential drug sensitivity score [8]: -1.4
differential drug sensitivity score [9]: 9.2
differential drug sensitivity score [10]: 7
differential drug sensitivity score [11]: 3.1
differential drug sensitivity score [12]: 5.2
differential drug sensitivity score [13]: -4.2

COc1ccc(C(=O)CC2(O)C(=O)Nc3c(Cl)ccc(Cl)c32)cc1 (configuration not stated) [YK-4-279]
differential drug sensitivity score [1]: 2.9
differential drug sensitivity score [2]: -20.3
differential drug sensitivity score [3]: 0.2
differential drug sensitivity score [4]: -0.3
differential drug sensitivity score [5]: -3
differential drug sensitivity score [6]: 1.9
differential drug sensitivity score [7]: 8.2
differential drug sensitivity score [8]: 3.8
differential drug sensitivity score [9]: 3.1
differential drug sensitivity score [10]: 4.5
differential drug sensitivity score [11]: 0
differential drug sensitivity score [12]: -3.2
differential drug sensitivity score [13]: -2

C=CC(=O)N1CCN(c2nc(=O)n(-c3c(C)ccnc3C(C)C)c3nc(-c4c(O)cccc4F)c(F)cc23)[C@@H](C)C1 [Sotorasib]
differential drug sensitivity score [1]: 6.3
differential drug sensitivity score [2]: -4.3
differential drug sensitivity score [3]: 2.7
differential drug sensitivity score [4]: 4.1
differential drug sensitivity score [5]: -0.1
differential drug sensitivity score [6]: 0.9
differential drug sensitivity score [7]: 10.6
differential drug sensitivity score [8]: 5.5
differential drug sensitivity score [9]: 2.8
differential drug sensitivity score [10]: 4.7
differential drug sensitivity score [11]: -3.1
differential drug sensitivity score [12]: 5.9
differential drug sensitivity score [13]: 1.9

CNC(=O)c1cc(Oc2ccc(NC(=O)Nc3ccc(Cl)c(C(F)(F)F)c3)c(F)c2)ccn1 [Regorafenib Monohydrate]
differential drug sensitivity score [1]: 1.8
differential drug sensitivity score [2]: -3.4
differential drug sensitivity score [3]: 1.3
differential drug sensitivity score [4]: 8.9
differential drug sensitivity score [5]: -3
differential drug sensitivity score [6]: -2.3
differential drug sensitivity score [7]: 13.6
differential drug sensitivity score [8]: 5.8
differential drug sensitivity score [9]: -1.1
differential drug sensitivity score [10]: 11.6
differential drug sensitivity score [11]: 0.4
differential drug sensitivity score [12]: 5.5
differential drug sensitivity score [13]: 1.5

CN(c1ncccc1CNc1nc(Nc2ccc3c(c2)CC(=O)N3)ncc1C(F)(F)F)S(C)(=O)=O
differential drug sensitivity score [1]: -1.2
differential drug sensitivity score [2]: -0.7
differential drug sensitivity score [3]: 5.1
differential drug sensitivity score [4]: -0.7
differential drug sensitivity score [5]: -0.6
differential drug sensitivity score [6]: 1.5
differential drug sensitivity score [7]: 6
differential drug sensitivity score [8]: 0.8
differential drug sensitivity score [9]: 2.2
differential drug sensitivity score [10]: 5
differential drug sensitivity score [11]: -0.4
differential drug sensitivity score [12]: -0.4
differential drug sensitivity score [13]: 3.8

COc1cc([C@@H]2c3cc4c(cc3[C@@H](O[C@@H]3O[C@@H]5CO[C@@H](C)O[C@H]5[C@H](O)[C@H]3O)[C@H]3COC(=O)[C@H]23)OCO4)cc(OC)c1O [Etoposide]
differential drug sensitivity score [1]: 7.2
differential drug sensitivity score [2]: -6.8
differential drug sensitivity score [3]: -1.6
differential drug sensitivity score [4]: 13.6
differential drug sensitivity score [5]: -4.3
differential drug sensitivity score [6]: 3.8
differential drug sensitivity score [7]: 25.5
differential drug sensitivity score [8]: 8.6
differential drug sensitivity score [9]: 8.7
differential drug sensitivity score [10]: 10
differential drug sensitivity score [11]: 6.1
differential drug sensitivity score [12]: 11.7
differential drug sensitivity score [13]: -7.3
